The values below come from ChEMBL document CHEMBL1201862, “PubChem BioAssay data set” (2004).

Each structure is given as a SMILES string.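 The compound was tested at five concentrations on cells cultured in 96-well plates, with a 48-hour exposure period. GI50 marks 50% less growth.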 Activity calls are given as the source filed them. No stated cut-off is given here; in the data, active = GI50 up to about 1.1 µM and inactive = higher. Where only a bound is given, the exact number is not on record here.

Some test systems named below: 786-0; ACHN; BT-549; HL-60; HT-29; LOX IMVI; M14; MDA-MB-231; MOLT-4; OVCAR-4; OVCAR-8; PC-3; RPMI-8226; SF-539; SK-MEL-28; SK-MEL-5; SK-OV-3; SNB-19; SW-620; XF498.
Holding throughout (experiment): NCI anticancer screen, dose series, 48 h

Regarding `NC(=S)N1N=C2c3ccccc3CCC[C@H]2[C@@H]1c1ccccc1`, the GI50 in the test with 786-0 is 1.01 µM (active); in the test with ACHN, 5.07 µM (inactive); in the test on BT-549, 0.406 µM (active); in the test on HL-60 it was 0.589 µM (active); with HT-29 it was 0.867 µM (active); in the test with LOX IMVI, 1.59 µM (inactive). The GI50 with M14 was 0.315 µM (active); in the test with MDA-MB-231 it was 0.513 µM (active); with MOLT-4 it was 0.638 µM (active); with OVCAR-4, 5 µM (inactive); in the test on OVCAR-8 it was 3.2 µM (inactive); in the test with PC-3, 1.1 µM (active). The GI50 is 0.824 µM (active) in the test on RPMI-8226; 0.518 µM (active) with SF-539; 10.5 µM (inactive) in the test on SK-MEL-28; 0.664 µM (active) in the test with SK-MEL-5; 0.427 µM (active) in the test with SK-OV-3; 1.37 µM (inactive) with SNB-19. Further, the results for the GI50 in the test on SW-620 and with XF498 were 0.385 µM (active) and 4.55 µM (inactive), respectively.
For the molecule `CCCCCCCCCCCCCCCCCCCCCC(=O)Nc1ccn(C2OC(CO)C(O)C2O)c(=O)n1` (configuration not stated), the GI50 was 9.62 µM (inactive) in the test with 786-0; 5.2 µM (inactive) in the test with ACHN; 10 µM (inactive) in the test with HL-60; > 100 µM (inactive) in the test with HT-29; 9.89 µM (inactive) in the test on LOX IMVI; 4.91 µM (inactive) in the test with M14. Moreover, the GI50 with MOLT-4 was 0.273 µM (active); in the test with OVCAR-4, > 100 µM (inactive); with OVCAR-8, 12.4 µM (inactive); in the test on RPMI-8226, > 100 µM (inactive); in the test on SF-539, > 100 µM (inactive); in the test with SK-MEL-28, > 100 µM (inactive). Further, the GI50 with SK-MEL-5 is 29 µM (inactive); in the test with SK-OV-3, > 54.6 µM (inactive); in the test with SNB-19, > 57 µM (inactive); with SW-620, > 57.4 µM (inactive); with XF498 it was > 100 µM (inactive).
